Measured values published in US20180055887A1, “METHOD FOR PREPARING INDUCED MESENCHYMAL STEM CELLS AND IMPROVING MESENCHYMAL STEM CELL'S CHARACTERS AND ITS APPLICATIONS” (ACADEMIA SINICA, priority 2016, published 2018).
Marks after values point to notes of the source that are not given here.

Experiments:
[1] = test system: Human primary neonatal foreskin fibroblasts (CRL2097); assay: Generation of iMSCs from fibroblasts by chemical treatment, flow cytometry for SSEA-4 and PODXL; type: cell-based; conditions: for Percentage of cells with both SSEA-4 and PODXL: CRL2097 fibroblasts, DMEM only 0.1%; for iMSC generation from fibroblasts (in words): SSEA-4+PODXL+ population by flow cytometry, without growth factors
Experimental: For iMSC dedifferentiation from human fibroblasts, primary fibroblasts were cultured in DMEM-HG for 2 days. The culture medium was then replaced with medium containing different chemical(s), with or without growth factor(s), for 3 to 21 days (FIG. 1A). Cells were cultured at 37° C. under 5% CO2.
Cells were then analyzed by FACSCanto (Becton Dickinson, Franklin Lakes, N.J., USA). SSEA-4 and PODXL double positive cells were isolated using a cell sorter (FACS Aria II, BD Biosciences).
After culture, the cells treated by the chemical cocktail were examined by flow cytometry.
Human primary neonatal foreskin fibroblasts (CRL2097) were cultured in DMEM medium only (as a negative control) or in DMEM medium containing a GSK3β inhibitor (CHIR99021, 3 μM) or a protein kinase C inhibitor (Go6983, 5 μM), and the percentage of the cells converted to iMSCs, co-expressing SSEA-4 and PODXL, were determined by flow cytometer.
Additional combinations of chemicals were analyzed for their activities to generate iMSCs from fibroblasts and the percentage of the cells converted to iMSCs, co-expressing SSEA-4 and PODXL, were determined by flow cytometer.

BMMSCs = assay: Improvement of multipotency of MSCs: percentage of MSC markers SSEA-4 and PODXL by flow cytometer; type: cell-based, human; conditions: treatment of BMMSCs
Experimental: For cell surface marker analysis, BMMSCs, iMSCs, and fibroblasts were incubated with FITC-conjugated anti-human SSEA-4 (clone MC-813-70; eBiosciences, San Diego, Calif., USA) and PE-conjugated anti-human PODXL (clone B34D1.3; eBiosciences) antibodies. Cells were then analyzed by FACSCanto (Becton Dickinson, Franklin Lakes, N.J., USA). SSEA-4 and PODXL double positive cells were isolated using a cell sorter (FACS Aria II, BD Biosciences).
BBMSCs were cultured in conversion medium for 6 days, without chemical treatment (control) or with treatment of chemical cocktails (6C+3GF), including six chemical kinase(6C) inhibitors i.e. a p38 inhibitor (5B202190), a JNK inhibitor (SP600125), a protein kinase C inhibitor (Go6983), a ROCK inhibitor (Y-27632), a ERK1/2 inhibitor (PD0325901) and a GSK3β inhibitor (CHIR99021) and three growth factors i.e. a leukemia inhibitory factor (LIF), a basic fibroblast growth factor (bFGF) and a transforming growth factor-β (TGF-β). In other conditions, MSCs were cultured with chemicals cocktails (six, seven or eight chemicals) without the growth factors. The percentages of the MSC markers, SSEA-4 and PODXL, were determined by flow cytometer. Six chemicals (6C) includes a p38 inhibitor (SB202190), a JNK inhibitor (SP600125), a protein kinase C inhibitor (Go6983), a ROCK inhibitor (Y-27632), a ERK1/2 inhibitor (PD0325901) and a GSK3β inhibitor (CHIR99021). […]

[2] = Table 2: other factors or a combination, tested in the same manner

Structure (SMILES) | Percentage of cells with both SSEA-4 and PODXL [1, 2] [%] | also measured
COc1cc2nc(N3CCCN(C)CC3)nc(NC3CCN(Cc4ccccc4)CC3)c2cc1OC [BIX01294] | 0.30 | –
Cc1cnc(-c2cnc(NCCNc3ccc(C#N)cn3)nc2-c2ccc(Cl)cc2Cl)[nH]1 [CHIR99021, 6-[(2-{[4-(2,4-Dichlorophenyl)-5-(5-methyl-1H-imidazol-2-yl)-2-pyrimidinyl]amino}ethyl)amino]nicotinonitrile] | – | iMSC generation from fibroblasts (in words) [1]: effective in iMSC generation; Percentage of cells with both SSEA-4 and PODXL ([1]; Table 1: single factor in DMEM medium, CHIR99021 3 μM, Go6983 5 μM): 0.9%; Percentage of cells with both SSEA-4 and PODXL ([1]; Table 1: single factor in DMEM medium, CHIR99021 3 μM, Go6983 5 μM, listed as CHIR99201): 0.90%*
Cc1nc(Nc2ncc(C(=O)Nc3c(C)cccc3Cl)s2)cc(N2CCN(CCO)CC2)n1 [Dasatinib] | 0.40 | –
c1cc(-c2cnn3cc(-c4ccc(OCCN5CCCCC5)cc4)cnc23)ccn1 [Dorsomorphin, 6-[4-(2-Piperidin-1-yl-ethoxy)-phenyl]-3-pyridin-4-yl-pyrrazolo[1,5,-α]pyrimidine] | 0.10 | Percentage of cells with both SSEA-4 and PODXL ([1]; Table 2: other factors or a combination, tested in the same manner, listed as dorsomorphin): 0.1%
O=S(=O)(c1cccc2cnccc12)N1CCCNCC1 [Fasudil] | 0.20 | –
N[C@@H](CCC(=O)N[C@@H](CS)C(=O)NCC(=O)O)C(=O)O [GSH, Glutathione] | 0.40 | –
COc1ccc2c(c1)c(C1=C(c3c[nH]c4ccccc34)C(=O)NC1=O)cn2CCCN(C)C [Go6983, 3-{1-[3-(Dimethylamino)propyl]-5-methoxy-1H-indol-3-yl}-4-(1H-indol-3-yl)-1H-pyrrole-2,5-dione] | – | iMSC generation from fibroblasts (in words) [1]: effective in iMSC generation; expression of functional markers of BMSCs (in words) (BMMSCs): can effectively increase the expression of functional markers
O=c1cc(N2CCOCC2)oc2c(-c3ccccc3)cccc12 [LY294002] | 0.80 | –
CC(=O)N[C@@H](CS)C(=O)O [NAC, N-Acetylcysteine] | 0.50 | –
O=C(NOC[C@@H](O)CO)c1ccc(F)c(F)c1Nc1ccc(I)cc1F [PD0325901, N-[(2S)-2,3-Dihydroxypropoxy]-3,4-difluoro-2-[(2-fluoro-4-iodophenyl)amino]benzamide] | 0.40 | –
CO[C@H]1C[C@@H]2CC[C@@H](C)[C@@](O)(O2)C(=O)C(=O)N2CCCC[C@H]2C(=O)O[C@H]([C@H](C)C[C@@H]2CC[C@@H](O)[C@H](OC)C2)CC(=O)[C@H](C)/C=C(\C)[C@@H](O)[C@@H](OC)C(=O)[C@H](C)C[C@H](C)/C=C/C=C/C=C/1C [Rapamycin, (1R,9S,12S,15R,16E,18R,19R,21R,23S,24E,26E,28E,30S,32S,35R)-1,18-Dihydroxy-12-{(2R)-1-[(1S,3R,4R)-4-hydroxy-3-methoxycyclohexyl]-2-propanyl}-19,30-dimethoxy-15,17,21,23,29,35-hexamethyl-11,36-dioxa-4-azatricyclo[30.3.1.0~4,9~]hexatriaconta-16,24,26,28-tetraene-2,3,10,14,20-pentone] | 0.20 | –
Cc1cccc(-c2n[nH]cc2-c2ccc3ncccc3n2)n1 [Repsox, 2-[3-(6-Methyl-2-pyridinyl)-1H-pyrazol-4-yl]-1,5-naphthyridine] | 0.40 | –
COc1ccc(C2CNC(=O)C2)cc1OC1CCCC1 (stereo not shown) [Rolipram] | 0.30 | –
Oc1ccc(-c2nc(-c3ccncc3)c(-c3ccc(F)cc3)[nH]2)cc1 [SB202190] | 0.10 | –
C[S+]([O-])c1ccc(-c2nc(-c3ccc(F)cc3)c(-c3ccncc3)[nH]2)cc1 (stereo not shown) [SB203580] | 0.10 | –
NC(=O)c1ccc(-c2nc(-c3ccc4c(c3)OCO4)c(-c3ccccn3)[nH]2)cc1 [SB431542] | 0.40 | –
CC(C)N(CCCNC(=O)Nc1ccc(C(C)(C)C)cc1)C[C@H]1O[C@@H](n2cc(Br)c3c(N)ncnc32)[C@H](O)[C@@H]1O [SGC0946, 5-Bromo-7-(5-deoxy-5-{isopropyl[3-({[4-(2-methyl-2-propanyl)phenyl]carbamoyl}amino)propyl]amino}-β-D-ribofuranosyl)-7H-pyrrolo[2,3-d]pyrimidin-4-amine] | 0.20 | –
O=C1c2ccccc2-c2n[nH]c3cccc1c23 [SP600125] | 0.20 | –
CCCC(=O)[O-].[Na+] [Sodium butyrate] | 0.70 | –
O=C(NCc1ccccc1)c1csc(Nc2ccncn2)n1 [Thiazovivin] | 0.80 | Percentage of cells with both SSEA-4 and PODXL ([1]; Table 2: other factors or a combination, tested in the same manner, listed as thiazovivin): 0.8%
CCCC(CCC)C(=O)O [VPA, 2-Propylpentanoic acid] | 0.2 | –
O=C1O[C@H]([C@@H](O)CO)C(O)=C1O [VitC, ascorbic acid] | 0.60 | –
C[C@@H](N)[C@H]1CC[C@H](C(=O)Nc2ccncc2)CC1 [Y27632] | 0.50 | –
